Each block holds one compound with its values, some of them ahead of it.
Tests used:
[1] = Clearance in human at 40 mg, po BID cotreated with paclitaxel by HPLC method; assay type: ADME, organism-based; conditions: in vivo
[2] = Half life in dog plasma at 5 ug/ml incubated for 1 to 24 hrs by LC/MS/MS method; assay type: ADME, cell-free, Canis lupus familiaris; conditions: time 1-24 hrs, dose 5 µg/ml
[3] = Protein binding in human plasma; assay type: ADME, cell-free
[4] = AUC (0 to infinity) in human at 20 mg/kg, po measured up to 30 hrs by HPLC method; assay type: ADME, organism-based; set-up: route oral, dose 20 mg/kg, time <=30; conditions: in vivo
[5] = Clearance in dog at 0.5 mg/kg, iv by HPLC method; assay type: ADME, organism-based, Canis lupus familiaris; conditions: in vivo
[6] = Cmax in human at 20 mg, po measured up to 240 hrs by HPLC method; assay type: ADME, organism-based; set-up: route oral, dose 20 mg, time <=240; conditions: in vivo
[7] = Half life in mouse plasma at 5 ug/ml incubated for 1 to 24 hrs by LC/MS/MS method; assay type: ADME, cell-free; conditions: time 1-24 hrs, dose 5 µg/ml
[8] = Cmax in human at 40 mg, po BID cotreated with paclitaxel by HPLC method; assay type: ADME, organism-based; set-up: route oral, dose 40 mg; conditions: in vivo
[9] = Half life in human at 20 mg/kg, po measured up to 240 hrs by HPLC method; assay type: ADME, organism-based; conditions: in vivo
[10] = AUC (0 to 10 hrs) in human at 40 mg, po BID cotreated with paclitaxel by HPLC method; assay type: ADME, organism-based; set-up: time < 10 hr, route oral, dose 40 mg; conditions: in vivo
[11] = Cmax in human at 20 mg/kg, po measured up to 30 hrs by HPLC method; assay type: ADME, organism-based; set-up: route oral, dose 20 mg/kg, time <=30; conditions: in vivo
[12] = Tmax in human at 20 mg, po measured up to 240 hrs by HPLC method; assay type: ADME, organism-based; conditions: in vivo
[13] = Tmax in human at 20 mg/kg, po measured up to 30 hrs by HPLC method; assay type: ADME, organism-based; conditions: in vivo
[14] = Half life in human at 40 mg, po BID cotreated with paclitaxel by HPLC method; assay type: ADME, organism-based; conditions: in vivo
[15] = Half life in human plasma at 5 ug/ml incubated for 1 to 24 hrs by LC/MS/MS method; assay type: ADME, cell-free; conditions: time 1-24 hrs, dose 5 µg/ml
[16] = Half life in human at 20 mg/kg, po measured up to 30 hrs by HPLC method; assay type: ADME, organism-based; conditions: in vivo
[17] = AUC (0 to infinity) in human at 20 mg, po measured up to 240 hrs by HPLC method; assay type: ADME, organism-based; set-up: route oral, dose 20 mg, time <=240; conditions: in vivo
[18] = Tmax in human at 3.36 mg, po; assay type: ADME; conditions: in vivo
[19] = Drug metabolism in human assessed as pyridoxal-5-phosphate Tmax at 3.36 mg, po; assay type: ADME; conditions: in vivo
[20] = Drug metabolism in human assessed as pyridoxal-5-phosphate Cmax at 3.36 mg, po; assay type: ADME; set-up: route oral, dose 3.36 mg; conditions: in vivo
[21] = Drug excretion in human urine at 3.36 mg, po measured within 24 hrs; assay type: ADME, organism-based; conditions: in vivo
[22] = Cmax in human at 3.36 mg, po measured for 7 days; assay type: ADME, organism-based; set-up: route oral, time 7 day, dose 3.36 mg; conditions: in vivo
[23] = Drug excretion in human urine assessed as maximum urinary excretion of pyridoxic-acid at 3.36 mg, po; assay type: ADME, tissue-based; conditions: in vivo
[24] = Drug excretion in human assessed as time of maximum urinary excretion of pyridoxic-acid at 3.36 mg, po; assay type: ADME; conditions: in vivo
[25] = Drug excretion in human urine assessed as maximum urinary excretion of pyridoxic-acid at 4 mg, po; assay type: ADME; conditions: in vivo, 24 h
[26] = Tmax in human at 4 mg, po; assay type: ADME; conditions: in vivo
[27] = Drug excretion in human urine assessed as time of maximum urinary excretion of pyridoxic-acid at 4 mg, po; assay type: ADME, tissue-based; conditions: in vivo
[28] = Drug metabolism in human assessed as pyridoxal-5-phosphate Tmax at 4 mg, po; assay type: ADME; conditions: in vivo
[29] = Drug metabolism in human assessed as pyridoxal-5-phosphate Cmax at 4 mg, po; assay type: ADME; set-up: route oral, dose 4 mg; conditions: in vivo
[30] = Drug excretion in human urine at 4 mg, po measured within 24 hrs; assay type: ADME, organism-based; conditions: in vivo
[31] = Cmax in human at 4 mg, po; assay type: ADME; set-up: route oral, dose 4 mg; conditions: in vivo
[32] = Tmax in human at 20 mg/kg, IM; assay type: ADME, organism-based; conditions: in vivo
[33] = Renal clearance in human at 20 mg/kg, IM; assay type: ADME, organism-based; conditions: in vivo
[34] = Drug excretion in human at 20 mg/kg, IM measured for 24 hrs; assay type: ADME, organism-based; conditions: in vivo, read-out: Drug excretion
[35] = Cmax in human at 20 mg/kg, IM; assay type: ADME, organism-based; set-up: route […], dose 20 mg/kg; conditions: in vivo
[36] = Half life in human at 20 mg/kg, IM; assay type: ADME, organism-based; conditions: in vivo
[37] = Bioavailability in human at 20 mpk, IM; assay type: ADME, organism-based; conditions: in vivo, dose 20 mg/kg
[38] = Protein binding in human plasma at 20 mg/kg, IM; assay type: ADME, organism-based; conditions: read-out: PPB (converted)
[39] = Volume of distribution at steady state in human at 20 mg/kg, IM; assay type: ADME, organism-based; conditions: in vivo

SMILES: Cc1cc2c(C(C)C)c(O)c(O)c(C=O)c2c(O)c1-c1c(C)cc2c(C(C)C)c(O)c(O)c(C=O)c2c1O [GOSSYPOL]
CL/F [1]: 2.5 mL/min/kg
half-life at 5 ug/ml [2]: < 1 h
PPB [3]: 63%
fraction unbound ([3]; read-out: PPB (converted)): 0.61
AUC(0-inf) [4]: 6.08 µM·h
clearance [5]: 0.833 mL/min/kg
CL ([5]; 0.5 mg/kg): 0.83 mL/min/kg
Cmax [6]: 1750 nM
half-life at 5 ug/ml [7]: < 1 h
Cmax [8]: 1270 nM
half-life [9]: 133 h
AUC at 10 h [10]: 6.81 µM·h
Cmax [11]: 799 nM
Tmax [12]: 4.6 h
Tmax [13]: 4.6 h
half-life [14]: 3.33 h
half-life at 5 ug/ml [15]: < 1 h
half-life [16]: 4.55 h
AUC(0-inf) [17]: 29.2 µM·h

Tmax [18]: 0.5 h
Tmax [19]: 1 h
Cmax [20]: 18 nM
Drug excretion [21]: 1.2 µmol
Cmax [22]: 280 nM
Drug excretion [23]: 1.6 µmol/h
Time [24]: 1 h
SMILES: Cc1ncc(CO)c(C=O)c1O [PYRIDOXAL]

Drug excretion [25]: 0.7 µmol/h
Tmax [26]: 1 h
Time [27]: 3 h
Tmax [28]: 3 h
Cmax [29]: 30 nM
Drug excretion [30]: 1.5 µmol
Cmax [31]: 60 nM
SMILES: Cc1ncc(CO)c(CO)c1O [PYRIDOXINE]

Tmax [32]: 0.5 h
CL renal [33]: 30 mL/min
dose excreted at 24 h [34]: 39%
Cmax [35]: 43000 nM
half-life [36]: 5.3 h
bioavailability [37]: 80%
fraction unbound [38]: 0.52
Vdss [39]: 1.77 L/kg
SMILES: [H]/N=C(/N)N[C@H]1[C@H](O)[C@@H](O)[C@H](O[C@@H]2O[C@@H](C)[C@](O)(C=O)[C@H]2O[C@@H]2O[C@@H](CO)[C@H](O)[C@@H](O)[C@@H]2NC)[C@@H](N/C(N)=N\[H])[C@@H]1O [STREPTOMYCIN]

Source: ChEMBL document CHEMBL4813910, “Curse or Cure? A Perspective on the Developability of Aldehydes as Active Pharmaceutical Ingredients” (J Med Chem, 2020)
